In experiment [1] the target is T1, SMYD3 (Homo sapiens (Human), UniProt Q9H7B4). The experiment can be described thus: SMYD3 cell assay (Trimethyl-MEKK2 In-Cell Western in 293T/17 cells transfected with MEKK2-flag and SMYD3). The experiment is classed as cell-based. From the text: Trimethyl-MEKK2-in-Cell Western Assay
MEM/Glutamax medium, Optimem Reduced Serum medium, penicillin-streptomycin, 0.05% trypsin and 1×D-PBS were purchased from Life Technologies, Grand Island, N.Y., USA. PBS-10× was purchased from Ambion, Life Technologies, Grand Island, N.Y., USA. PBS with Tween 20 (PBST (10×)) was purchased from KPL, Gaithersburg, Md., USA. Tet System FBS-approved FBS US Source was purchased from Clontech, Mountain View, Calif., USA. Odyssey blocking buffer, 800CW goat anti-rabbit IgG (H+L) antibody, 680CW Goat anti-mouse IgG (H+L) and Licor Odyssey infrared scanner were purchased from Licor Biosciences, Lincoln, Nebr., USA. Tri-methyl-Lysine [A260]-MEKK2 antibody, MEKK2 and SMYD3 plasmids were made at Epizyme. Anti-flag monoclonal mouse antibody was purchased from Sigma, St. Louis, Mo., USA. Methanol was purchased from VWR, Franklin, Mass., USA. 10% Tween 20 was purchased from KPL, Inc., Gaithersburg, Md., USA. Fugene was purchased from Promega, Madison, Wis., USA. The Biotek ELx405 was purchased from BioTek, Winooski, Vt., USA. The multidrop combi was purchased from Thermo Scientific, Waltham, Mass., USA.
Cell Treatment, in Cell Western (ICW) for Detection of Trimethyl-Lysine-MEKK2 and MEKK2.
Plasmids were prepared for delivery to cells by first mixing 1350 μL Opti-MEM with Fugene (81 μL) in a sterile Eppendorf and incubated for five minutes at room temperature (RT). […] Entire volume of Opti-MEM/Fugene mixture was then added to a microfuge tube containing DNA plasmid, mixed and then incubated ×15 minutes at RT. […] Medium was then removed, and cells were washed once with PBS in the flask. Trypsin 0.05% (3 mL) was added and cells incubated for three minutes. Room temperature MEM+10% Tet system FBS was added and cells were mixed gently, and counted using the Vi-cell. Cells were seeded at 100,000 cells/mL in 50 μL MEM/10% Tet FBS/Pen/Strep to a 384 well black/clear poly-D-lysine coated plate containing test agent diluted in DMSO. The final top concentration of test compound was 40 μM. […] Plates were incubated ×30 minutes at RT in low-airflow area, followed by incubation at 37° C. under 5% CO2 for 24 hours. Medium was aspirated from all wells of assay plates prior to fixation and permeabilization with ice cold (−20° C.) methanol (90 μL/well) for ten minutes. Plates were rinsed with PBS three times on BioTek ELx405. PBS was removed with a final aspiration, and Odyssey blocking buffer (50 μL/well) was added to each well and incubated for one hour at RT. Primary antibody solution was prepared (anti-trimethyl-MEKK2 at 1:600 dilution plus mouse anti-flag antibody at 1:10,000 dilution in diluent (Odyssey Blocking buffer+0.1% Tween 20)) and 20 μL per well was dispensed using the Multidrop Combi. Assay plates were then sealed with foil, and incubated overnight at 4° C. Plates were washed five times with PBS-Tween (1×) on Biotek ELx405 and blotted on paper towel to remove excess reagent.
First, the ratio for each well was determined by:
Each plate included fourteen control wells of DMSO only treatment (Minimum Inhibition) as well as fourteen control wells for maximum inhibition (Background). The average of the ratio values for each control type was calculated and used to determine the percent inhibition for each test well in the plate. Reference compound was serially diluted two-fold in DMSO for a total of nine test concentrations, beginning at 40 μM. Percent inhibition was calculated (below).
Non-linear regression curves were generated to calculate the IC50 and dose-response relationship using triplicate wells per concentration of compound.

Experiment [2] has as its target T1, SMYD3. The experiment is described as follows: SMYD3 biochemical assay (SMYD3 enzyme assay on MEKK2 protein substrate, 3H-SAM scintillation proximity assay). The conditions noted are these: read-out: SMYD3 Biochem IC50. The essentials:
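Detection used scintillation proximity beads to capture ³H-methylated GST-MEKK2 after quench with 100 uM final cold SAM. The reaction was started by SAM/MEKK2 addition after a 30 min RT compound–enzyme preincubation. Enzyme was tag-free full-length human SMYD3 from E. coli, in buffer of 25 mM Tris-Cl pH 8.0, 1 mM TCEP, 0.005% BSG, 0.005% Tween 20.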
(In general: In a scintillation proximity assay essentially only radioactivity close to the scintillant gives light.)

For experiment [3], the target named is SMYD2 (Homo sapiens (Human), UniProt Q9NRG4). The experiment can be described thus: SMYD2 biochemical assay (SMYD2 enzyme assay on peptide substrate, 3H-SAM Flashplate).
[4] abbreviates: Table 3A, average of n = 1 to n = 50, read-out: SMYD3 cell IC50.
Where [5] appears, read: Table 3A, average of n = 1 to n = 50.
Where [6] appears, read: read-out: SMYD2 Biochem IC50, IC50 values are an average of n = 1 to n = 50.

Where a name gives a salt, the structure may show the parent alone. Read-outs that look alike come from different tables or passages of the source. A value given as a limit tells only on which side of the number the result lay.

T1 sequence (Q9H7B4 whole entry): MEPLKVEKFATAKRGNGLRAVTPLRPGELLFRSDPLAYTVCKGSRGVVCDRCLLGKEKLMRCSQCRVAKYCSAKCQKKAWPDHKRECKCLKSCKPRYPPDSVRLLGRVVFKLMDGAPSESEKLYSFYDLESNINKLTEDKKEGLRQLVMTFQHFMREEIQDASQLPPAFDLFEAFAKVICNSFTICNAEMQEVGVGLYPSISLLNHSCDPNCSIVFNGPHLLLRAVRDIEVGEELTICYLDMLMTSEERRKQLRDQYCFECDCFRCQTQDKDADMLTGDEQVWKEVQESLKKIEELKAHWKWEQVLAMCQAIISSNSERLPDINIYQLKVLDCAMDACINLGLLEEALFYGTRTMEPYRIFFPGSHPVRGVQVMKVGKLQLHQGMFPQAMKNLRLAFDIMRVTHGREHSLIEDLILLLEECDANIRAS
Sequence of SMYD2 (Q9NRG4 whole entry): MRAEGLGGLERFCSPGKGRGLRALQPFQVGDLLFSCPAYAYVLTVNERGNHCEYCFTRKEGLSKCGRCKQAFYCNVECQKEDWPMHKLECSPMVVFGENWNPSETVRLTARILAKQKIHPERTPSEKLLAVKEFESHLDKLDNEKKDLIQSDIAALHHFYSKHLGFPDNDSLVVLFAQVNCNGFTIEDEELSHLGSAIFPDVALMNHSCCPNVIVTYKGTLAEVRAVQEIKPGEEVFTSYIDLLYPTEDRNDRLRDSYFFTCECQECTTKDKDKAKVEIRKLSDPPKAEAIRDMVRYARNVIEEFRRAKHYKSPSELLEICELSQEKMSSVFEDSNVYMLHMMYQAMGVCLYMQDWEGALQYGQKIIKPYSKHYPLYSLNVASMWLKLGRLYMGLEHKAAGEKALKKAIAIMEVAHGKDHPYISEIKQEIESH

A word on the IC50: it is the concentration that inhibits the measured activity by half. Turning to `O=C1Cc2cc(C(=O)NC3CCN(S(=O)(=O)CC4CCNCC4)CC3)ccc2N1` [compound 620, 2-oxo-N-[1-[(piperidin-4-ylmethane)sulfonyl]piperidin-4-yl]-2,3-dihydro-1H-indole-5-carboxamide Trifluoroacetate], the IC50 in experiment [1] (setting [4]) is ≥ 10000 nM; in experiment [2] (setting [5]) it was 68.2 nM.

Turning to `O=C1Cc2cc(C(=O)N[C@H]3C[C@H]4CC[C@@H](C3)N4S(=O)(=O)CC3CCNCC3)c(Cl)cc2N1` [compound 596, 6-chloro-2-oxo-N-((1R,3r,5S)-8-((piperidin-4-ylmethyl)sulfonyl)-8-azabicyclo[3.2.1]octan-3-yl)indoline-5-carboxamide], the IC50 in experiment [1] (setting [4]) was determined as 2660 nM; in experiment [2] (setting [5]), 3.6 nM.

Turning to `C[C@H]1Oc2ccc(C(=O)N[C@H]3C[C@H]4CC[C@@H](C3)N4S(=O)(=O)CC3CCNCC3)cc2NC1=O` [Cpd. No. 625, (2R)-2-methyl-3-oxo-N-[(1R,3r,5S)-8-[(piperidin-4-ylmethane)sulfonyl]-8-azabicyclo[3.2.1]octan-3-yl]-3,4-dihydro-2H-1,4-benzoxazine-6-carboxamide Hydrochloride], the IC50 in experiment [1] (setting [4]) was ≥ 10000 nM; in experiment [2] (setting [5]) it was 185 nM.

Regarding `CCc1cnnc(C(=O)N[C@H]2CCN(S(=O)(=O)N3CCC(N)CC3)[C@@H](C)C2)c1` [compound 619, N-((2S,4S)-1-((4-aminopiperidin-1-yl)sulfonyl)-2-methylpiperidin-4-yl)-5-ethylpyridazine-3-carboxamide], the 50% inhibitory concentration (IC50) in experiment [1] (setting [4]) is 468 nM; in experiment [2] (setting [5]), 59.6 nM.

Consider `NC1CCN(S(=O)(=O)N2[C@@H]3CC[C@H]2C[C@@H](NC(=O)c2nnc(C4CC4)s2)C3)CC1` [compound 618, N-((1R,3r,5S)-8-((4-aminopiperidin-1-yl)sulfonyl)-8-azabicyclo[3.2.1]octan-3-yl)-5-cyclopropyl-1,3,4-thiadiazole-2-carboxamide], for which the values for the IC50 in experiment [1] (setting [4]) and in experiment [2] (setting [5]) were 348 nM and 55.8 nM, respectively.

As for `NCCC(=O)N[C@H]1CC[C@H](NC(=O)c2cc3c(cc2Cl)NC(=O)C3)CC1` [compound 491, N-((1r,4r)-4-(3-aminopropanamido)cyclohexyl)-6-chloro-2-oxoindoline-5-carboxamide], the figures for the IC50 in experiment [1] (read-out: SMYD3 Cell IC50) and in experiment [2] were > 40000 nM and 150 nM, respectively.

On to `NC1CCC(S(=O)(=O)N2[C@@H]3CC[C@H]2C[C@@H](NC(=O)c2ccc4c(c2)OC(F)(F)O4)C3)CC1` (stereo partly drawn) [Cpd. No. 622, N-((1R,3r,5S)-8-(4-aminocyclohexylsulfonyl)-8-aza-bicyclo[3.2.1]octan-3-yl)-2,2-difluorobenzo[d][1,3]dioxole-5-carboxamide Trifluoroacetate], for which the IC50 in experiment [1] (setting [4]) is 1080 nM; in experiment [2] (setting [5]) it was 131 nM.

Consider `C[C@H]1CC(NC(=O)c2cc3c(cc2Cl)NC(=O)C3)CCN1C(=O)[C@H]1CC[C@H](N)CC1` (stereo partly drawn) [compound 640, N-((2S)-1-((1r,4S)-4-aminocyclohexane-1-carbonyl)-2-methylpiperidin-4-yl)-6-chloro-2-oxoindoline-5-carboxamide], for which the IC50 in experiment [1] (setting [4]) is ≥ 10000 nM.

For `O=C(NC1CN(C2(c3ccccc3)CC2)C1)c1cn(C2CC2)nn1` [compound 755, 1-cyclopropyl-N-[1-(1-phenylcyclopropyl)azetidin-3-yl]-1H-1,2,3-triazole-4-carboxamide], the IC50 in experiment [3] (setting [6]) is 30.5 µM.

For the compound `CC(c1cccc(OCCN)c1Cl)N1CC(NC(=O)c2cn(C3CC3)nn2)C1` (stereo not drawn) [compound 1009, N-(1-(1-(3-(2-aminoethoxy)-2-chlorophenyl)ethyl)azetidin-3-yl)-1-cyclopropyl-1H-1,2,3-triazole-4-carboxamide], the IC50 in experiment [3] (setting [6]) came to 5.7 µM.

Take `C[C@@H](c1ccc(OCc2ccccc2)cc1)N1CC(NC(=O)c2cn(C3CC3)nn2)C1` (single isomer, unassigned) [compound 778]: in experiment [3] (SMYD2 Biochem IC50, IC50 values are an average of n = 1 to n = 50), the midpoint of inhibition, the IC50, lay at 0.0845 µM.

For the origin of these results see patent US10266526B2, “Substituted 1,2,3-triazoles as SMYD inhibitors for treating cancer” (EPIZYME, INC., priority 2014, dated 2019).
